# Experimental data as given in patent US6706740B2, “Fungicidal heterocyclic aromatic amides and their compositions, methods of use and preparation” (Dow AgroSciences LLC, priority 1999, dated 2004).
# Tested on: Erysiphe graminis—ERYSGT
# Assay: Powdery Mildew of Wheat, in vivo whole plant, 24 Hour Protectant
# Conditions: Erysiphe; 100 ppm spray, wheat, 24 hour protectant, % control of fungal infection vs untreated plants; read-out: ERYSGT in vivo 1 Day Protectant
row,Compound,pest or weed control at 100 ppm [%]
1,COc1ccnc(C(=O)N[C@H]2COC(=O)[C@H](Cc3ccccc3)[C@@H](OC(=O)C(C)C)[C@H](C)OC2=O)c1OC(=O)C1CCCC1 [Compound 611],< 25

# Same assay, conditions: Erysiphe; 100 ppm spray, wheat, 24 hour protectant; control of fungal infection vs untreated plants; read-out: ERYSGT in vivo 1 Day Protectant
row,Compound,pest or weed control at 100 ppm [%]
1,COc1ccnc(C(=O)Nc2ccc(Oc3ccccc3C)cc2)c1O [Compound 415],25 to 74
2,COc1ccnc(C(=O)Nc2ccc(Oc3ccc(Cl)cc3)cc2)c1O [Compound 443],< 25

# Tested on: Leptosphaeria nodorum—LEPTNO
# Assay: Glume Blotch of Wheat, in vivo whole plant, 24 Hour Protectant
# Conditions: 100 ppm spray, wheat, 24 hour protectant, % control of fungal infection vs untreated plants
row,Compound,LEPTNO in vivo 1 Day Protectant
1,COc1ccnc(C(=O)N[C@H]2COC(=O)[C@H](Cc3ccccc3)[C@@H](OC(=O)C(C)C)[C@H](C)OC2=O)c1OC(=O)C1CCCC1 [Compound 611],+ +

# Same assay, conditions: Leptosphaeria; 100 ppm spray, wheat, 24 hour protectant; control of fungal infection vs untreated plants; read-out: LEPTNO in vivo 1 Day Protectant
row,Compound,pest or weed control at 100 ppm [%]
1,COc1ccnc(C(=O)Nc2ccc(Oc3ccccc3C)cc2)c1O [Compound 415],< 25
2,COc1ccnc(C(=O)Nc2ccc(Oc3ccc(Cl)cc3)cc2)c1O [Compound 443],< 25

# Tested on: Stagonospora nodorum (Leptosphaeria nodorum—LEPTNO)
# Assay: In vitro fungal growth inhibition, Stagonospora nodorum (LEPTNO)
# Type: cell-based
# Conditions: Leptosphaeria; 25 ppm in growth medium; read-out: LEPTNO in vitro Growth Inhibition
row,Compound,inhibition at 25 ppm [%]
1,COc1ccnc(C(=O)N[C@H]2COC(=O)[C@H](Cc3ccccc3)[C@@H](OC(=O)C(C)C)[C@H](C)OC2=O)c1OC(=O)C1CCCC1 [Compound 611],< 80
2,COc1ccnc(C(=O)Nc2ccc(Oc3ccccc3C)cc2)c1O [Compound 415],< 80
3,COc1ccnc(C(=O)Nc2ccc(Oc3ccc(Cl)cc3)cc2)c1O [Compound 443],> 80

# Tested on: Mycosphaerella graminicola (Septoria tritici—SEPTTR)
# Assay: In vitro fungal growth inhibition, Mycosphaerella graminicola (SEPTTR)
# Type: cell-based
# Conditions: Zymoseptoria tritici; 25 ppm in growth medium; read-out: SEPTTR in vitro Growth Inhibition
row,Compound,inhibition at 25 ppm [%]
1,COc1ccnc(C(=O)N[C@H]2COC(=O)[C@H](Cc3ccccc3)[C@@H](OC(=O)C(C)C)[C@H](C)OC2=O)c1OC(=O)C1CCCC1 [Compound 611],< 80
2,COc1ccnc(C(=O)Nc2ccc(Oc3ccccc3C)cc2)c1O [Compound 415],> 80
3,COc1ccnc(C(=O)Nc2ccc(Oc3ccc(Cl)cc3)cc2)c1O [Compound 443],< 80

# Tested on: Rhizoctonia solani (RHIZSO)
# Assay: microbe, parasite or virus in culture
# Type: cell-based
# Conditions: Rhizoctonia solani, read-out: RHIZSO in vitro Growth Inhibition
row,Compound,inhibition at 25 ppm [%]
1,COc1ccnc(C(=O)N[C@H]2COC(=O)[C@H](Cc3ccccc3)[C@@H](OC(=O)C(C)C)[C@H](C)OC2=O)c1OC(=O)C1CCCC1 [Compound 611],< 80
2,COc1ccnc(C(=O)Nc2ccc(Oc3ccccc3C)cc2)c1O [Compound 415],< 80
3,COc1ccnc(C(=O)Nc2ccc(Oc3ccc(Cl)cc3)cc2)c1O [Compound 443],< 80

# Tested on: Phytophthora infestans (PHYTIN)
# Assay: microbe, parasite or virus in culture
# Type: cell-based
# Conditions: Phytophthora infestans, read-out: PHYTIN in vitro Growth Inhibition
row,Compound,inhibition at 25 ppm [%]
1,COc1ccnc(C(=O)N[C@H]2COC(=O)[C@H](Cc3ccccc3)[C@@H](OC(=O)C(C)C)[C@H](C)OC2=O)c1OC(=O)C1CCCC1 [Compound 611],< 80
2,COc1ccnc(C(=O)Nc2ccc(Oc3ccccc3C)cc2)c1O [Compound 415],< 80
3,COc1ccnc(C(=O)Nc2ccc(Oc3ccc(Cl)cc3)cc2)c1O [Compound 443],< 80

# Tested on: Magnaporthe grisea (Pyricularia oryzae—PYRIOR)
# Assay: microbe, parasite or virus in culture
# Type: cell-based
# Conditions: Pyricularia oryzae, read-out: PYRIOR in vitro Growth Inhibition
row,Compound,inhibition at 25 ppm [%]
1,COc1ccnc(C(=O)N[C@H]2COC(=O)[C@H](Cc3ccccc3)[C@@H](OC(=O)C(C)C)[C@H](C)OC2=O)c1OC(=O)C1CCCC1 [Compound 611],< 80
2,COc1ccnc(C(=O)Nc2ccc(Oc3ccccc3C)cc2)c1O [Compound 415],< 80
3,COc1ccnc(C(=O)Nc2ccc(Oc3ccc(Cl)cc3)cc2)c1O [Compound 443],< 80

# Tested on: Septoria tritici—SEPTTR
# Assay: Leaf Blotch of Wheat, in vivo whole plant, 24 Hour Protectant
# Conditions: 100 ppm spray, wheat, 24 hour protectant, % control of fungal infection vs untreated plants
row,Compound,SEPTTR in vivo 1 Day Protectant
1,COc1ccnc(C(=O)N[C@H]2COC(=O)[C@H](Cc3ccccc3)[C@@H](OC(=O)C(C)C)[C@H](C)OC2=O)c1OC(=O)C1CCCC1 [Compound 611],+ +

# Same assay, conditions: Zymoseptoria tritici, 24 h, 100 ppm spray, wheat, 24 hour protectant; control of fungal infection vs untreated plants; read-out: SEPTTR in vivo 1 Day Protectant
row,Compound,pest or weed control at 100 ppm [%]
1,COc1ccnc(C(=O)Nc2ccc(Oc3ccccc3C)cc2)c1O [Compound 415],< 25
2,COc1ccnc(C(=O)Nc2ccc(Oc3ccc(Cl)cc3)cc2)c1O [Compound 443],< 25

# Tested on: Phytophthora infestans—PHYTIN
# Assay: whole plant or invertebrate
# Type: in vivo
# Conditions: Phytophthora, in Solanum lycopersicum, 24 h, read-out: PHYTIN in vivo 1 Day Protectant
row,Compound,pest or weed control at 100 ppm [%]
1,COc1ccnc(C(=O)N[C@H]2COC(=O)[C@H](Cc3ccccc3)[C@@H](OC(=O)C(C)C)[C@H](C)OC2=O)c1OC(=O)C1CCCC1 [Compound 611],< 25
2,COc1ccnc(C(=O)Nc2ccc(Oc3ccccc3C)cc2)c1O [Compound 415],< 25
3,COc1ccnc(C(=O)Nc2ccc(Oc3ccc(Cl)cc3)cc2)c1O [Compound 443],< 25

# Tested on: Ustilago maydis (USTIMA)
# Assay: microbe, parasite or virus in culture
# Type: cell-based
# Conditions: Mycosarcoma maydis, read-out: USTIMA in vitro Growth Inhibition
row,Compound,inhibition at 25 ppm [%]
1,COc1ccnc(C(=O)N[C@H]2COC(=O)[C@H](Cc3ccccc3)[C@@H](OC(=O)C(C)C)[C@H](C)OC2=O)c1OC(=O)C1CCCC1 [Compound 611],< 80
2,COc1ccnc(C(=O)Nc2ccc(Oc3ccccc3C)cc2)c1O [Compound 415],< 80
3,COc1ccnc(C(=O)Nc2ccc(Oc3ccc(Cl)cc3)cc2)c1O [Compound 443],< 80

# Tested on: Puccinia recondita—PUCCRT
# Assay: Brown Rust of Wheat, in vivo whole plant, 24 Hour Protectant
# Conditions: 100 ppm spray, wheat, 24 hour protectant, % control of fungal infection vs untreated plants
row,Compound,PUCCRT in vivo 1 Day Protectant
1,COc1ccnc(C(=O)N[C@H]2COC(=O)[C@H](Cc3ccccc3)[C@@H](OC(=O)C(C)C)[C@H](C)OC2=O)c1OC(=O)C1CCCC1 [Compound 611],+ +

# Same assay, conditions: Puccinia; 100 ppm spray, wheat, 24 hour protectant; control of fungal infection vs untreated plants; read-out: PUCCRT in vivo 1 Day Protectant
row,Compound,pest or weed control at 100 ppm [%]
1,COc1ccnc(C(=O)Nc2ccc(Oc3ccccc3C)cc2)c1O [Compound 415],25 to 74
2,COc1ccnc(C(=O)Nc2ccc(Oc3ccc(Cl)cc3)cc2)c1O [Compound 443],25 to 74
